Test results published in US12091411B2, “IRAK degraders and uses thereof” (Kymera Therapeutics, Inc., priority 2022, dated 2024).
Where two headings read alike, the source gives them in different places.

Molecular target: T1, IRAK4 (Homo sapiens, UniProt Q9NWZ3)
T1 construct: Degradation of IRAK4 in OCI-LY10 was quantitatively measured using Meso Scale Discovery technology; endogenous in cells; host or cells: OCI-LY10
T1 sequence (Q9NWZ3 1-460): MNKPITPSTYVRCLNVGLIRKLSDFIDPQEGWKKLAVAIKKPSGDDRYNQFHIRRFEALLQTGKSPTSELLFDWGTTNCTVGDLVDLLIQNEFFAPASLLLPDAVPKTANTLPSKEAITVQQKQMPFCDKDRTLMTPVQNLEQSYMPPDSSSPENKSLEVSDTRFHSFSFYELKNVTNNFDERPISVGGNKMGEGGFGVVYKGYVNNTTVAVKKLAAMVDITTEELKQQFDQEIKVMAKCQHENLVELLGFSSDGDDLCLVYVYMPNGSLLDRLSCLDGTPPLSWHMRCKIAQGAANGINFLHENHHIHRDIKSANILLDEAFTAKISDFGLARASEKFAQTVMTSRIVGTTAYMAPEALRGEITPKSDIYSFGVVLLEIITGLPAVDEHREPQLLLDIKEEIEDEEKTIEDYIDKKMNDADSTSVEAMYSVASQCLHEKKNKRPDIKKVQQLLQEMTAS
Experiment: IRAK4 MSD Degradation in OCI-LY10
Format: cell-based
Settings: OCI-LY10 cells, MSD
Outline: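 OCI-LY10 cells exposed to 8-point 1:3 compound series (top 1 to 10 μM) for 4 to 24 h at 37 °C, 5% CO2. Lysate IRAK4 quantified by MSD sandwich immunoassay. DC50 from three-parameter logistic fit, binned A (<0.01 μM) to D (>0.2 μM or not tested).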

[1] = 4 hrs incubation, read-out: IRAK4 degradation in OCI-LY10 at 4 hrs: DC50
[2] = 24 hrs incubation, read-out: IRAK4 degradation in OCI-LY10 at 24 hrs: DC50

`CN(c1cccc2c1n(C)c(=O)n2C1CCC(=O)NC1=O)C1CN(C[C@H]2CC[C@H](n3cc4cc(NC(=O)c5cccc(C(F)(F)F)n5)ccc4n3)CC2)C1` (some centres unmarked) [I-699] showed a DC50 [1] greater than 200 nM and a DC50 [2] greater than 200 nM.

In the case of `CN(CC1CCN(c2cccc3c2n(C)c(=O)n3C2CCC(=O)NC2=O)CC1)c1ccc(-n2cc(NC(=O)c3cnn4cccnc34)c(C(F)F)n2)cc1` (centres unmarked) [I-700], the DC50 [1] is reported as greater than 200 nM.

Compound `Cn1c(=O)n(C2CCC(=O)NC2=O)c2cccc(N3CCN(C4CCN(C[C@H]5CC[C@H](n6cc(NC(=O)c7cnn8ccc(N9C[C@H]%10C[C@@H]9CO%10)nc78)c(C(F)F)n6)CC5)CC4(F)F)CC3)c21` (some centres unmarked) [I-701] has a DC50 [1] greater than 200 nM and a DC50 [2] of less than 10 nM.

Compound `Cn1c(=O)n(C2CCC(=O)NC2=O)c2cccc(CN3CC4(CCN(Cc5ccc(-n6cc(NC(=O)c7cnn8ccc(N9C[C@H]%10C[C@@H]9CO%10)nc78)c(C(F)F)n6)cc5)CC4)C3)c21` (some centres unmarked) [I-702] has a DC50 [1] greater than 200 nM and a DC50 [2] of 10 to 100 nM.

`Cn1c(=O)n(C2CCC(=O)NC2=O)c2cccc(C#CCN3CCN(C[C@H]4CC[C@H](n5cc(NC(=O)c6cnn7ccc(N8CCOC(F)(F)C8)nc67)c(C(F)F)n5)CC4)CC3)c21` (some centres unmarked) [I-703] showed a DC50 [1] greater than 200 nM and a DC50 [2] of less than 10 nM.

Work on `COc1cc2nn([C@H]3CC[C@H](CN4CC=C(c5ccc6c(c5)n(C)c(=O)n6C5CCC(=O)NC5=O)C(F)(F)C4)CC3)cc2cc1NC(=O)c1cccc(C(F)(F)F)n1` (some centres unmarked) [I-704] yielded a DC50 [1] greater than 200 nM and a DC50 [2] of 10 to 100 nM.

For `Cn1c(=O)n(C2CCC(=O)NC2=O)c2cccc(C3CCN(C[C@H]4CC[C@H](n5cc6cc(NC(=O)c7cccc(C(F)(F)F)n7)c(C#N)cc6n5)CC4)CC3(F)F)c21` (some centres unmarked) [I-705], the DC50 [1] was greater than 200 nM and the DC50 [2] was less than 10 nM.

Work on `Cn1c(=O)n(C2CCC(=O)NC2=O)c2cccc(C3=CCN(C[C@H]4CC[C@H](n5cc6cc(NC(=O)c7cccc(C(F)(F)F)n7)ccc6n5)CC4)CC3F)c21` (some centres unmarked) [I-706] yielded a DC50 [1] greater than 200 nM and a DC50 [2] of 10 to 100 nM.

Compound `Cn1c(=O)n(C2CCC(=O)NC2=O)c2cccc([C@H]3CCN(C[C@H]4CC[C@H](n5cc6cc(NC(=O)c7cccc(C(F)(F)F)n7)ccc6n5)CC4)C[C@@H]3O)c21` (some centres unmarked) [I-707] has a DC50 [1] greater than 200 nM and a DC50 [2] of less than 10 nM.

In the case of `Cn1c(=O)n(C2CCC(=O)NC2=O)c2cccc(C3CCN(C[C@H]4CC[C@H](n5cc6cc(NC(=O)c7cccc(C(F)(F)F)n7)ccc6n5)CC4)CC3(F)F)c21` (some centres unmarked) [I-708], the DC50 [1] is reported as greater than 200 nM and the DC50 [2] is reported as 10 to 100 nM.

Compound `O=C1CCN(c2cncc3c(C4CCN(C[C@H]5CC[C@H](n6cc7cc(NC(=O)c8cccc(C(F)(F)F)n8)ccc7n6)CC5)CC4(F)F)cccc23)C(=O)N1` (some centres unmarked) [I-709] has a DC50 [1] greater than 200 nM and a DC50 [2] of 10 to 100 nM.

Work on `COc1cc2nn([C@H]3CC[C@H](CN(C)C4CCN(c5cccc6c5n(C)c(=O)n6C5CCC(=O)NC5=O)CC4(F)F)CC3)cc2cc1NC(=O)c1cccc(C(F)(F)F)n1` (some centres unmarked) [I-710] yielded a DC50 [1] greater than 200 nM and a DC50 [2] of 10 to 100 nM.

In the case of `Cn1c(=O)n(C2CCC(=O)NC2=O)c2cccc(C3CCN(C[C@]4(O)CC[C@@H](n5cc6cc(NC(=O)c7cccc(C(F)(F)F)n7)ccc6n5)CC4)CC3)c21` (some centres unmarked) [I-711], the DC50 [1] is reported as greater than 200 nM and the DC50 [2] is reported as less than 10 nM.

`Cn1c(=O)n(C2CCC(=O)NC2=O)c2ccc(N3CCN(CC4COC5(C4)CN(C[C@H]4CC[C@H](n6cc(NC(=O)c7cnn8ccc(N9C[C@H]%10C[C@@H]9CO%10)nc78)c(C(F)F)n6)CC4)C5)CC3)cc21` (some centres unmarked) [I-712] showed a DC50 [1] greater than 200 nM and a DC50 [2] of less than 10 nM.

Compound `Cn1c(=O)n(C2CCC(=O)NC2=O)c2cccc(C3=CCN(C[C@H]4CC[C@H](n5cc6cc(NC(=O)c7cccc(C(F)(F)F)n7)c(C#N)cc6n5)CC4)CC3F)c21` (some centres unmarked) [I-713] has a DC50 [1] greater than 200 nM and a DC50 [2] of less than 10 nM.

For `Cn1c(=O)n(C2CCC(=O)NC2=O)c2cccc(C#CCO[C@H]3CCN(C[C@H]4CC[C@H](n5cc(NC(=O)c6cnn7ccc(N8CCS(=O)(=O)CC8)nc67)c(C(F)F)n5)CC4)C[C@@H]3F)c21` (some centres unmarked) [I-714], the DC50 [1] was greater than 200 nM and the DC50 [2] was less than 10 nM.

Compound `Cn1c(=O)n(C2CCC(=O)NC2=O)c2cccc(C#CCO[C@@H]3CCN(C[C@H]4CC[C@H](n5cc(NC(=O)c6cnn7ccc(N8CCS(=O)(=O)CC8)nc67)c(C(F)F)n5)CC4)C[C@H]3F)c21` (some centres unmarked) [I-715] has a DC50 [1] greater than 200 nM and a DC50 [2] of less than 10 nM.

`Cn1c(=O)n(C2CCC(=O)NC2=O)c2cccc(C3CCN(C[C@H]4CC[C@H](n5cc6cc(NC(=O)c7cccc(C#N)n7)ccc6n5)CC4)CC3(F)F)c21` (some centres unmarked) [I-716] was tested, and the DC50 [1] was greater than 200 nM and the DC50 [2] was less than 10 nM.

For `Cn1c(=O)n(C2CCC(=O)NC2=O)c2cccc([C@H]3CCN(C[C@H]4CC[C@H](n5cc6cc(NC(=O)c7cccc(C(F)(F)F)n7)ncc6n5)CC4)C[C@@H]3F)c21` (some centres unmarked) [I-717], the DC50 [1] was greater than 200 nM and the DC50 [2] was less than 10 nM.

`Cn1c(=O)n(C2CCC(=O)NC2=O)c2cccc([C@H]3C[C@H](CO[C@H]4CCN(C[C@H]5CC[C@H](n6cc(NC(=O)c7cnn8ccc(N9C[C@H]%10C[C@@H]9CO%10)nc78)c(C(F)F)n6)CC5)C[C@@H]4F)C3)c21` (some centres unmarked) [I-718] was tested, and the DC50 [1] was greater than 200 nM and the DC50 [2] was less than 10 nM.

`Cn1c(=O)n(C2CCC(=O)NC2=O)c2cccc(C3CCN(C[C@H]4CC[C@H](n5cc6cc(NC(=O)c7cnn8ccc(N9C[C@H]%10C[C@@H]9CO%10)nc78)ccc6n5)CC4)CC3(F)F)c21` (some centres unmarked) [I-719] showed a DC50 [1] greater than 200 nM and a DC50 [2] of less than 10 nM.

For `Cn1c(=O)n(C2CCC(=O)NC2=O)c2cccc(N3CCN([C@@H]4CCN(C[C@H]5CC[C@H](n6cc(NC(=O)c7cnn8ccc(N9C[C@H]%10C[C@@H]9CO%10)nc78)c(C(F)F)n6)CC5)CC4(F)F)CC3)c21` (some centres unmarked) [I-720], the DC50 [1] was greater than 200 nM and the DC50 [2] was less than 10 nM.

`Cn1c(=O)n(C2CCC(=O)NC2=O)c2cccc(N3CCN([C@H]4CCN(C[C@H]5CC[C@H](n6cc(NC(=O)c7cnn8ccc(N9C[C@H]%10C[C@@H]9CO%10)nc78)c(C(F)F)n6)CC5)CC4(F)F)CC3)c21` (some centres unmarked) [I-721] was tested, and the DC50 [1] was greater than 200 nM and the DC50 [2] was less than 10 nM.

Work on `Cn1c(=O)n(C2CCC(=O)NC2=O)c2cccc([C@H]3C[C@H](CO[C@@H]4CCN(C[C@H]5CC[C@H](n6cc(NC(=O)c7cnn8ccc(N9C[C@H]%10C[C@@H]9CO%10)nc78)c(C(F)F)n6)CC5)C[C@@H]4F)C3)c21` (some centres unmarked) [I-722] yielded a DC50 [1] greater than 200 nM and a DC50 [2] of less than 10 nM.

In the case of `Cn1c(=O)n(C2CCC(=O)NC2=O)c2cccc(N3CCN(C4CCN(C[C@H]5CC[C@H](n6cc(NC(=O)c7cnn8ccc(N9CCC%10(COC%10)C9)nc78)c(C(F)F)n6)CC5)CC4(F)F)CC3)c21` (some centres unmarked) [I-723], the DC50 [1] is reported as greater than 200 nM and the DC50 [2] is reported as less than 10 nM.

Compound `Cn1c(=O)n(C2CCC(=O)NC2=O)c2ccc(N3CC(CN4CCN(C[C@H]5CC[C@H](n6cc(NC(=O)c7cnn8ccc(N9C[C@H]%10C[C@@H]9CO%10)nc78)c(C(F)F)n6)CC5)CC4)C3)c(F)c21` (some centres unmarked) [I-724] has a DC50 [1] greater than 200 nM and a DC50 [2] of less than 10 nM.

`Cn1c(=O)n(C2CCC(=O)NC2=O)c2ccc(N3CC(CO[C@@H]4CCN(CC5CCC(n6cc(NC(=O)c7cnn8ccc(N9C[C@H]%10C[C@@H]9CO%10)nc78)c(C(F)F)n6)CC5)C[C@@H]4F)C3)c(F)c21` (some centres unmarked) [I-725] gave a DC50 [1] greater than 200 nM and a DC50 [2] greater than 200 nM.

`Cn1c(=O)n(C2CCC(=O)NC2=O)c2cccc(C3=CCN(C[C@H]4CC[C@H](n5cc6cc(NC(=O)c7cccc(C(F)(F)F)n7)c(C(F)F)cc6n5)CC4)CC3F)c21` (some centres unmarked) [I-726] gave a DC50 [1] greater than 200 nM and a DC50 [2] of less than 10 nM.

With `Cc1cccc(C(=O)Nc2ccc3nn([C@H]4CC[C@H](CN5CC[C@@H](c6cccc7c6n(C)c(=O)n7C6CCC(=O)NC6=O)[C@H](F)C5)CC4)cc3c2)n1` (some centres unmarked) [I-727] the DC50 [1] was greater than 200 nM and the DC50 [2] was less than 10 nM.

Compound `Cn1c(=O)n(C2CCC(=O)NC2=O)c2cccc(N3CC(O[C@H]4CCN(C[C@H]5CC[C@H](n6cc(NC(=O)c7cnn8ccc(N9C[C@H]%10C[C@@H]9CO%10)nc78)c(C(F)F)n6)CC5)C[C@H]4F)C3)c21` (some centres unmarked) [I-728] has a DC50 [1] greater than 200 nM and a DC50 [2] of less than 10 nM.
